From patent US10758534B2 (Vertex Pharmaceuticals Incorporated, priority 2014, dated 2020) come the findings set out here.

The term EC30 denotes the concentration needed for an effect of 30%.

The assay has as its target T1, F508del (Homo sapiens, UniProt P13569, DEL508-508).
T1 construct: expressed in transfected cells
In words: Protocol 2: FRET membrane potential optical assay (VIPR), identification of correction compounds. It counts as cell-based. The text has this: Membrane potential optical methods for assaying F508del modulation properties of compounds.
These voltage sensitive assays are based on the change in fluorescence resonant energy transfer (FRET) between the membrane-soluble, voltage-sensitive dye, DiSBAC2(3), and a fluorescent phospholipid, CC2-DMPE, which is attached to the outer leaflet of the plasma membrane and acts as a FRET donor. Changes in membrane potential (Vm) cause the negatively charged DiSBAC2(3) to redistribute across the plasma membrane and the amount of energy transfer from CC2-DMPE changes accordingly. The changes in fluorescence emission were monitored using VIPR™ II, which is an integrated liquid handler and fluorescent detector designed to conduct cell-based screens in 96- or 384-well microtiter plates.
To identify small molecules that correct the trafficking defect associated with F508del; a single-addition HTS assay format was developed. The cells were incubated in serum-free medium for 16 hrs at 37° C. in the presence or absence (negative control) of test compound. As a positive control, cells plated in 384-well plates were incubated for 16 hrs at 27° C. to “temperature-correct” F508del. The cells were subsequently rinsed 3× with Krebs Ringers solution and loaded with the voltage-sensitive dyes. To activate F508del, 10 μM forskolin and the CFTR potentiator, genistein (20 μM), were added along with Cl^−-free medium to each well. The addition of Cl^−-free medium promoted Cl^− efflux in response to F508del activation and the resulting membrane depolarization was optically monitored using the FRET-based voltage-sensor dyes.
• Bath Solution #1: (in mM) NaCl 160, KCl 4.5, CaCl2 2, MgCl2 1, HEPES 10, pH 7.4 with NaOH. • Chloride-free bath solution: Chloride salts in Bath Solution #1 (above) are substituted with gluconate salts. • CC2-DMPE: Prepared as a 10 mM stock solution in DMSO and stored at −20° C. • DiSBAC2(3): Prepared as a 10 mM stock in DMSO and stored at −20° C. Cell Culture
NIH3T3 mouse fibroblasts stably expressing F508del are used for optical measurements of membrane potential. The cells are maintained at 37° C. in 5% CO2 and 90% humidity in Dulbecco's modified Eagle's medium supplemented with 2 mM glutamine, 10% fetal bovine serum, 1×NEAA, β-ME, 1× pen/strep, and 25 mM HEPES in 175 cm^2 culture flasks. For all optical assays, the cells were seeded at 30,000/well in 384-well matrigel-coated plates and cultured for 2 hrs at 37° C. before culturing at 27° C. for 24 hrs for the potentiator assay. For the correction assays, the cells are cultured at 27° C. or 37° C. with and without compounds for 16-24 hours.

The mark [1] stands for this setting: Table 3, compounds of Table 1 as modulators of CFTR activity, protocol not stated.
Setting [2] is: F508del CFTR modulator activity, compounds of Table 1, read-out: EC30.

Structures are written as SMILES. Read-outs that look alike come from different tables or passages of the source. Some results are limits rather than exact numbers.

T1 sequence (P13569 with tags, fused parts or gaps DEL508-508): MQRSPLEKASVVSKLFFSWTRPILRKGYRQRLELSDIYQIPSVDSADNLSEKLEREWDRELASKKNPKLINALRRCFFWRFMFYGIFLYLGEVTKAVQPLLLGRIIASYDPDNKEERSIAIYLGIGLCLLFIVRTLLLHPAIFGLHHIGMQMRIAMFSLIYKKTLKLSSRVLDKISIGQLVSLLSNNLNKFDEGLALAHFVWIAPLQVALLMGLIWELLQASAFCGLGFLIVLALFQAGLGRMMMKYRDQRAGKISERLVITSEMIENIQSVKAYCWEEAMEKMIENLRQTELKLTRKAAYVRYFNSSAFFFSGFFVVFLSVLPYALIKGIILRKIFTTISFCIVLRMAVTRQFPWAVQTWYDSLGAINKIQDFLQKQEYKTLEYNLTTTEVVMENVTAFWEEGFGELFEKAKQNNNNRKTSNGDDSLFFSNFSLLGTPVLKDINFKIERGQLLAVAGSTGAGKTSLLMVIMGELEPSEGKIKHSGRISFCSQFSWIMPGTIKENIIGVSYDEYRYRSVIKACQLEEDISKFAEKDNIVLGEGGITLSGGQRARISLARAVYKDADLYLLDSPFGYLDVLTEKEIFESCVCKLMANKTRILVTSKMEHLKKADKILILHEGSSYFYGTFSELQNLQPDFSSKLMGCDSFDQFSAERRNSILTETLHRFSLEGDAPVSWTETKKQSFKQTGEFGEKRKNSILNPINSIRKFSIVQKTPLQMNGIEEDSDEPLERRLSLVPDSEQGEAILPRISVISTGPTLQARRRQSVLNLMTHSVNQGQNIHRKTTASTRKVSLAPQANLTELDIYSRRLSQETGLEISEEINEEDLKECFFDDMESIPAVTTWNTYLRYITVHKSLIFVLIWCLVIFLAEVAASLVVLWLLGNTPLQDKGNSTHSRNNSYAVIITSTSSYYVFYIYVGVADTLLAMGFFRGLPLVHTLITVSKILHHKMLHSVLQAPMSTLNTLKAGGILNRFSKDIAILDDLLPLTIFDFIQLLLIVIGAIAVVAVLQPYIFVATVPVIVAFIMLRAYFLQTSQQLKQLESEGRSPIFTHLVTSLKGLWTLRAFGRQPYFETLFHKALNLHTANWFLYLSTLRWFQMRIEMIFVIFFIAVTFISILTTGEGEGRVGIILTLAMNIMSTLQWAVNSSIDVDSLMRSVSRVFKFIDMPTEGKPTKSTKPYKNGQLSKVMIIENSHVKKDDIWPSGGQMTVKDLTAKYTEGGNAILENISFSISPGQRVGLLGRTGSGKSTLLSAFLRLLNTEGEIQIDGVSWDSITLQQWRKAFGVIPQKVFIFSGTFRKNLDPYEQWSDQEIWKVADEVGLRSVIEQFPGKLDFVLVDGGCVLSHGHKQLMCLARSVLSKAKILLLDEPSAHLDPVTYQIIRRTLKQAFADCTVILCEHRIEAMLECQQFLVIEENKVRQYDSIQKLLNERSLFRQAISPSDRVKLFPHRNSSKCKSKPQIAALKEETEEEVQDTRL

With `Cc1ccccc1Oc1nc(C(C)(C)C)ccc1C(=O)NS(=O)(=O)c1cccc(N)c1` [Compound 296, N-(3-aminophenyl)sulfonyl-6-tert-butyl-2-(2-methylphenoxy)pyridine-3-carboxamide], under setting [1], the 30% effect concentration (EC30) entry is “+++ (“+++” means <3 uM)”. `Cc1cc(C)c(Oc2nc(-c3ccccc3C(C)(C)C)ccc2C(=O)NS(=O)(=O)c2cccc(N)n2)c(C)c1` [Compound 364, N-[(6-amino-2-pyridyl)sulfonyl]-6-(2-tert-butylphenyl)-2-(2,4,6-trimethylphenoxy)pyridine-3-carboxamide]: under setting [1], the concentration for an effect of 30% (EC30) entry is “+-F+”. On to `COc1ncccc1S(=O)(=O)NC(=O)c1ccc(C(C)(C)C)nc1Oc1c(C)cc(C)cc1C` [Compound 191, 6-tert-butyl-N-[(2-methoxy-3-pyridyl)sulfonyl]-2-(2,4,6-trimethylphenoxy)pyridine-3-carboxamide], for which, under setting [1], the EC30 result is “+++ (“+++” means <3 uM)”. For `Cc1cc(C)c(Cn2c(C(=O)NS(=O)(=O)c3ccnc(N)c3)cc3ccccc32)c(C)c1` [Compound 627, N-[(2-amino-4-pyridyl)sulfonyl]-1-[(2,4,6-trimethylphenyl)methyl]indole-2-carboxamide], the 30% effect concentration (EC30) entry under setting [1] is “+ (“+” means greater than 10 uM)”.

With `CC(C)COc1cc(F)cc(-c2ccc(C(=O)NS(=O)(=O)c3ccc[nH]c3=O)c(N3C[C@@H](C)CC3(C)C)n2)c1` [Compound 492, 6-(3-fluoro-5-isobutoxy-phenyl)-N-[(2-oxo-1H-pyridin-3-yl)sulfonyl]-2-[(4S)-2,2,4-trimethylpyrrolidin-1-yl]pyridine-3-carboxamide], the EC30 entry under setting [1] is “+++ (“+++” means <3 uM)”. On the same count and under the same terms, for `Cc1cc(C)c(Oc2nc(C3CCOCC3)ccc2C(=O)NS(=O)(=O)c2cccc(N)n2)c(C)c1` [Compound 748, N-[(6-amino-2-pyridyl)sulfonyl]-6-tetrahydropyran-4-yl-2-(2,4,6-trimethylphenoxy)pyridine-3-carboxamide] the value was “++ (“++” means between 3 uM and 10 uM)”. On to `CC[C@@H](C)Oc1ccn(-c2ccc(C(=O)NS(=O)(=O)c3cccnc3N)c(N3C[C@@H](C)CC3(C)C)n2)n1` [Compound 2704], for which, under setting [2], the concentration for an effect of 30% (EC30) was below 3000 nM. `C[C@@H]1CN(c2nc(-c3ccc4cc[nH]c4c3)ccc2C(=O)NS(=O)(=O)c2cccnc2N)C(C)(C)C1` [Compound 2054, N-[(2-amino-3-pyridyl)sulfonyl]-6-(1H-indol-6-yl)-2-[(4S)-2,2,4-trimethylpyrrolidin-1-yl]pyridine-3-carboxamide]: under setting [2], the concentration for an effect of 30% (EC30) is below 3000 nM.

In the case of `COc1cc(-c2cc(C(=O)NS(=O)(=O)c3ccccc3)n(Cc3c(C)cccc3C)n2)ccc1Cl` [Compound 37, N-(benzenesulfonyl)-5-(4-chloro-3-methoxy-phenyl)-2-[(2,6-dimethylphenyl)methyl]pyrazole-3-carboxamide], the EC30 result under setting [1] is on record as “+++ (“+++” means <3 uM)”.

Consider `CC(C)COc1cc(F)cc(-c2ccc(C(=O)NS(=O)(=O)c3cccc(N)n3)c(N3CCC(C)C3C)n2)c1` (centres unmarked) [Compound 720, N-[(6-amino-2-pyridyl)sulfonyl]-2-(2,3-dimethylpyrrolidin-1-yl)-6-(3-fluoro-5-isobutoxy-phenyl)pyridine-3-carboxamide], for which, under setting [1], the EC30 entry was “+++ (“+++” means <3 uM)”.

With `CCCc1ccccc1-c1cnc(Oc2c(C)cc(C)cc2C)c(C(=O)NS(=O)(=O)c2cccc(N)n2)c1` [Compound 429, N-[(6-amino-2-pyridyl)sulfonyl]-5-(2-propylphenyl)-2-(2,4,6-trimethylphenoxy)pyridine-3-carboxamide], under setting [1], the EC30 result is listed as “+++ (“+++” means <3 uM)”. The same measure, in the same setting: next, `Cc1nc(OCC(C)C)ccc1-c1ccc(C(=O)NS(=O)(=O)c2cccc(N)n2)c(N2CC(C)CC2(C)C)n1` (centres unmarked) [Compound 616, N-[(6-amino-2-pyridyl)sulfonyl]-6-(6-isobutoxy-2-methyl-3-pyridyl)-2-(2,2,4-trimethylpyrrolidin-1-yl)pyridine-3-carboxamide]: “+++ (“+++” means <3 uM)”. Take `Cc1cccc(C)c1Cn1nc(C(C)(C)C)cc1C(=O)NS(=O)(=O)c1cccs1` [Compound 77, 5-tert-butyl-2-[(2,6-dimethylphenyl)methyl]-N-(2-thienylsulfonyl)pyrazole-3-carboxamide]: under setting [1], the EC30 entry is reported as “+++ (“+++” means <3 uM)”. Consider `C[C@@H]1CN(c2nc(-n3ccc(OCC4CC4)n3)ccc2C(=O)NS(=O)(=O)c2cccnc2N)C(C)(C)C1` [Compound 2691], for which, under setting [2], the 30% effect concentration (EC30) was below 3000 nM.

`CCN(CC)c1ccc(Nc2cccc(S(=O)(=O)NC(=O)c3cccnc3N3CC(C)CC3(C)C)n2)cc1` (centres unmarked) [Compound 2531, N—[[6-[4-(diethylamino)anilino]-2-pyridyl]sulfonyl]-2-(2,2,4-trimethylpyrrolidin-1-yl)pyridine-3-carboxamide]: the EC30 under setting [2] is below 3000 nM. The same measure, in the same setting: next, `CCCCOc1cccc(S(=O)(=O)NC(=O)c2cccnc2N2CC(C)CC2(C)C)n1` (centres unmarked) [Compound 2167, N-[(6-butoxy-2-pyridyl)sulfonyl]-2-(2,2,4-trimethylpyrrolidin-1-yl)pyridine-3-carboxamide]: below 3000 nM; `COc1cc(C)cc(-c2cnc(N3CC(C)CC3(C)C)c(C(=O)NS(=O)(=O)c3cccc(N)n3)c2)c1` (centres unmarked) [Compound 2499, N-[(6-amino-2-pyridyl)sulfonyl]-5-(3-methoxy-5-methyl-phenyl)-2-(2,2,4-trimethylpyrrolidin-1-yl)pyridine-3-carboxamide]: below 3000 nM. For the molecule `CCOc1cccc2c1CN(Cc1c(C)cc(C)cc1C)C2(C)C(=O)NS(=O)(=O)c1ccc[nH]c1=O` (centres unmarked) [Compound 410, 4-ethoxy-1-methyl-N-[(2-oxo-1H-pyridin-3-yl)sulfonyl]-2-[(2,4,6-trimethylphenyl)methyl]isoindoline-1-carboxamide], the EC30 result under setting [1] is reported as “+++ (“+++” means <3 uM)”.

With `Cc1cccc(C)c1Cn1nc(-c2cccc(F)c2)cc1C(=O)NS(=O)(=O)c1ccccc1` [Compound 166, N-(benzenesulfonyl)-2-[(2,6-dimethylphenyl)methyl]-5-(3-fluorophenyl)pyrazole-3-carboxamide], the concentration for an effect of 30% (EC30) entry under setting [1] is reported as “+++ (“+++” means <3 uM)”. Take `Cc1cc(C)c(CN2CCc3ccccc3CC2C(=O)NS(=O)(=O)c2cc[nH]n2)c(C)c1` (centres unmarked) [Compound 628, N-(1H-pyrazol-3-ylsulfonyl)-3-[(2,4,6-trimethylphenyl)methyl]-1,2,4,5-tetrahydro-3-benzazepine-4-carboxamide]: the concentration for an effect of 30% (EC30) entry under setting [1] is “+++ (“+++” means <3 uM)”. Consider `COc1cccc(S(=O)(=O)NC(=O)c2ccc(-c3cc(F)cc(OCC(C)C)c3)nc2N2CC(C)CC2(C)C)n1` (centres unmarked) [Compound 795], for which the concentration for an effect of 30% (EC30) result under setting [1] is “+++ (“+++” means <3 uM)”. Regarding `CC(C)COc1cc(F)cc(-c2ccc(C(=O)NS(=O)(=O)c3cccnc3)c(N3C[C@@H](C)CC3(C)C)n2)c1` [Compound 2377, 6-(3-fluoro-5-isobutoxy-phenyl)-N-(3-pyridylsulfonyl)-2-[(4S)-2,2,4-trimethylpyrrolidin-1-yl]pyridine-3-carboxamide], the EC30 under setting [2] is below 3000 nM. As to `CC(C)Oc1ccc(-c2ccc(C(=O)NS(=O)(=O)c3cccc(N)n3)c(N3CCC(Cc4ccccc4)C3C)n2)cn1` (centres unmarked) [Compound 658, N-[(6-amino-2-pyridyl)sulfonyl]-2-(3-benzyl-2-methyl-pyrrolidin-1-yl)-6-(6-isopropoxy-3-pyridyl)pyridine-3-carboxamide], the concentration for an effect of 30% (EC30) entry under setting [1] is “+++ (“+++” means <3 uM)”.

As to `CC(C)COc1cc(F)cc(-c2ccc(C(=O)NS(=O)(=O)c3ccn[nH]3)c(N3CCC4(CC3)OCc3ccccc34)n2)c1` [Compound 506, 6-(3-fluoro-5-isobutoxy-phenyl)-N-(1H-pyrazol-5-ylsulfonyl)-2-spiro[1H-isobenzofuran-3,4′-piperidine]-1′-yl-pyridine-3-carboxamide], the concentration for an effect of 30% (EC30) entry under setting [1] is “+++ (“+++” means <3 uM)”. With `CC(C)Cc1ccn(-c2ccc(C(=O)NS(=O)(=O)c3cccnc3N)c(N3C[C@@H](C)CC3(C)C)n2)n1` [Compound 2036, N-[(2-amino-3-pyridyl)sulfonyl]-6-(3-isobutylpyrazol-1-yl)-2-[(4S)-2,2,4-trimethylpyrrolidin-1-yl]pyridine-3-carboxamide], the EC30 under setting [2] was below 3000 nM. Same read-out and setting: next, `CCOCCNc1cccc(S(=O)(=O)NC(=O)c2cccnc2N2CC(C)CC2(C)C)n1` (centres unmarked) [Compound 2354, N—[[6-(2-ethoxyethylamino)-2-pyridyl]sulfonyl]-2-(2,2,4-trimethylpyrrolidin-1-yl)pyridine-3-carboxamide]: 3000 to 10000 nM.
